Measurements published in US20130156845A1, “LIPID FORMULATED SINGLE STRANDED RNA” (ALNYLAM PHARMACEUTICALS, INC., priority 2010, published 2013).
Like-named read-outs stand apart in the source and are kept apart here. Strand notation (5' to 3'): a small letter for the sugar, then the base; units joined by * are phosphorothioate-linked, units joined directly phosphodiester-linked; [ ] holds rarer units or linkages, { } end groups; capitals alone tell only the bases. [DMAEAc-N] = nucleoside with 2'-O-dimethylaminoethyl acetamide (DMAEAc) sugar (N: the base); [R5Me] = (R)-5'-methyl-2'-deoxythymidine; e = 2'-O-(2-methoxyethyl) (MOE); m = 2'-O-methyl; {P} = phosphate; f = 2'-fluoro

Legend:
[1] = Modified ssRNA 5′-phosphate serum stability assay (Example 60); assay type: in vitro ADME; conditions: full length ssRNA with 5′-terminal phosphate; 10 μM in 95% fresh mouse serum, 37° C., LC/MS
Excerpt: A serum stability assay is useful for evaluating the stability of oligomeric compounds in the presences of nucleases and other enzymes found in serum. For example, the stability of a 5′-terminal phosphate group of an oligomeric compound can be evaluated by assessing the ability of the 5′-terminal phosphate group to remain attached to the oligomeric compound in the presence of serum. Accordingly, a serum stability assay was employed to evaluate the stability of modified ssRNAs having a 5′-terminal phosphate group.
Various modified ssRNAs, shown below, having a 5′-terminal phosphate group (10 μM) were dissolved in 95% of fresh mouse serum and incubated at 37° C. Aliquots of serum (100 μL) were removed after 0, 1, 3, 6 or 24 hours of incubation times. The serum samples were immediately quenched and snap frozen. The samples were extracted by the strong anion exchange (SAX) and octadecylsilyl (C-18) columns. For each incubation time, the amount of full length modified ssRNA having a 5′-terminal phosphate group was determined by LC/MS, and the half-life of the full length modified ssRNA having a 5′ terminal phosphate group was calculated. The results are expressed as half-time (T1/2) in the table below.

human PTEN = experiment: PTEN expression in HeLa cells, ssRNAs vs siRNAs (Example 62); assay type: cell-based
Protocol: A series of 5′ and 2′ bis-substituted modified oligomeric compounds were prepared as single strand RNAs (ssRNAs). The antisense (AS) strands listed below were designed to target human PTEN, and each was also assayed as part of a duplex with the same sense strand (ISIS 341401, shown below) for their ability to reduce PTEN expression levels. HeLa cells were treated with the single stranded or double stranded oligomeric compounds created with the antisense compounds shown below using methods described herein. The IC50's were calculated using the linear regression equation generated by plotting the normalized mRNA levels to the log of the concentrations used.

[2] = Phosphate stability in mouse serum (Example 68)
Protocol: Single-stranded oligomeric compounds were tested for stability in mouse serum.

PTEN [3] = experiment: PTEN mRNA reduction in HeLa cells, dose response (Example 69); assay type: cell-based, human; conditions: percent inhibition of PTEN mRNA, 0.067-50 nM
Protocol: In accordance with the present disclosure, oligomeric compounds were synthesized and tested for their ability to reduce PTEN expression over a range of doses. Human HeLa cells were treated with either ISIS 447581, 467074, 418046 or 467076. A dose comparison was evaluated with dose concentrations of 0.067, 0.2, 0.62, 1.9, 5.5, 16.7 and 50 nM using methods described herein. Expression levels of PTEN were determined using real-time PCR and normalized to RIBOGREEN™ using methods described herein. The percent inhibition of PTEN mRNA was determined and the resulting dose-response curves were used to determine the EC50. The EC50s are listed below.

PTEN [4] = experiment: Liver PTEN mRNA in Balb/c mice, unformulated oligomeric compounds (Example 70); assay type: in vivo, mouse; conditions: 48 h; for inhibition of PTEN: 75 mg/kg, liver; for % inhibition: liver PTEN mRNA, single i.p. dose 75 mg/kg, normalized to saline control
Protocol: Six-week-old male Balb/c mice (Jackson Laboratory, Bar Harbor, Me.) were injected intraperitenially with a single dose of 75 mg/kg of one of the three oligomeric compounds above or with saline control. Each dose group consisted of four animals. The mice were sacrificed 48 hours following administration. Livers were collected and PTEN mRNA levels were assessed using real-time PCR and RIBOGREEN® RNA quantification reagent (Molecular Probes, Inc. Eugene, Oreg.) according to standard protocols. PTEN mRNA levels were determined relative to total RNA (using Ribogreen), and normalized to the saline-treated control. Results are listed below as the average % inhibition of PTEN mRNA expression for each treatment group, normalized to saline-injected control.

PTEN [5] = experiment: In vivo evaluation of ssRNA formulated in lipid particle LNP06, liver PTEN mRNA (Example 77); set-up: species or system mouse; conditions: ssRNA formulated in LNP06, 4.5 mg/kg tail vein, C57BL/6 mice, liver PTEN mRNA normalized to GAPDH, 2 days post injection
Protocol: In accordance with the present disclosure, oligomeric compounds were synthesized and tested for their ability to reduce PTEN. C57BL/6 mice (Charles River Labs, MA) received either saline or LNP formulated single stranded RNA via tail vein injection at a volume of 0.01 mL/g and the single stranded RNA dose is 4.5 mg/kg. 25 groups of female mice and 9 modified ssRNAs targeting PTEN were formulated in LNP06 and tested. To determine liver mRNA levels of PTEN, 2 days post injection, animals were sacrificed and livers were harvested and snap frozen in liquid nitrogen. Liver lysates were prepared from the frozen tissues and liver mRNA levels of PTEN normalized to GAPDH were quantified using a branched DNA assay (QuantiGene Assay, Panomics, Calif.).

[6] = In vivo stability: tissue level of intact compound (Example 71)
Protocol: The in vivo stability of the three oligomeric compounds in Example 70 was evaluated. The tissue samples were obtained from the animals in which PTEN was assessed. […] Quantitative analysis of the oligonucleotides standard were performed by extracted ion chromatograms in the most abundant charge state (−4) using Chemstation software.

A549 cells = experiment: MicroRNA mimics: cell cycle assay; assay type: cell-based; conditions: RNAIMAX transfection, 0.1-100 nM, nocodazole, propidium iodide flow cytometry
Protocol: A cell cycle assay was used to evaluate the activity of microRNA mimics. A549 cells were plated at a density of approximately 45,000 cells per well of a 24-well plate. The following day, cells were transfected with microRNA mimics and control oligomeric compounds, using RNAIMAX as the transfection reagent. Oligomeric compounds were tested at concentrations ranging from 0.1 nM to 100 nM. Control oligomeric compounds were also tested. Approximately 24 hours following transfection, nocodazole was added to the cells at a concentration ranging from 0.5 to 2.0 μg/ml. Approximately 16 hours later, the cells were harvested, washed, ethanol-fixed and stained with propidium iodide. Cells cycle profiles were generated by subjecting the stained cells to flow cytometry (FACSCAN).

[7] = antisense strand duplexed with sense strand ISIS 341401, PTEN mRNA, read-out: EC50 (nM) siRNA
[8] = single stranded antisense compound, PTEN mRNA, read-out: EC50 (nM) ssRNA
[9] = full compound with intact phosphorous moiety, first table
[10] = Dose @ 75 mg/kg (48 h time point)

Substance	T1/2 [1]	EC50 (human PTEN; [7])	EC50 (human PTEN; [8])	EC50 (PTEN [3])	also measured
P-TRUfGfUfCfUfCfUfGfGfUfCfCfUfUfAfCfUfUfAeAe (antisense TUGUCUCUGGUCCUUACUUAA; sugars from the 5' end [R5Me]1 f18 e2, 5' {P}, backbone not given here) [ISIS 432356]	8.7 h	0.7 nM	3 nM		T1/2 full length [2, 9]: 8.7 h
P-TScUfGmUfCmUfCmUfGmGfUmCfCmUfUmAfCmUfUmAeAe (antisense TUGUCUCUGGUCCUUACUUAA; 5'-phosphate, 2'-F/2'-OMe, MOE modifications, chemistry not fully specified) [ISIS 467074]		0.1 nM	2.5 nM	2.5 nM	inhibition of PTEN (PTEN [4]): lowest amount of PTEN reduction; % inhibition (PTEN [4]): 11%; % Kd (PTEN [5]): 52%; compound lacking the 5′-phosphate in tissue ([6]; 75 mg/kg, 48 h): detected; level of intact compound in tissue ([6]; 75 mg/kg, 48 h): not detected; Tissue Level of intact compound (μg/g) [6, 10]: none detected
P-TdUfGfUfCfUfCfUfGfGfUfCfCfUfUfAfCfUfUfAeAe (antisense {P}-[DMAEAc-T]fUfGfUfCfUfCfUfGfGfUfCfCfU*fU*fA*fC*fU*fU*eA*eA) [ISIS 422391]	6.5 h	0.5 nM	5 nM		T1/2 full length ([2]; four compounds tested separately, second table): 3.7 h; T1/2 full length [2, 9]: 6.5 h
P-USfUfGfUfCfUfCfUfGfGfUfCfCfUfUfAfCfUfUf (antisense UUGUCUCUGGUCCUUACUU; 5'-phosphate, 2'-F, phosphorothioate, chemistry not fully specified) [ISIS 398701, modified ssRNA targeting PTEN]	18.2 h				
P-UmAfGfCfAfGfCfAfCmGmUfAfAmAmUfAfUfUfGfGmCmGmAeAe [ss miR-16]					cell cycle phenotype (A549 cells): blocking cells in the G1 phase of the cell cycle
P-UmUfGmUfCmUfCmUfGmGfUmCfCmUfUmAfCmUfUmAeAe (antisense UUGUCUCUGGUCCUUACUUAA; sugars from the 5' end mfmfmfmfmfmfmfmfmfmee, 5' {P}, backbone not given here) [ISIS 418046, modified ssRNA targeting PTEN]		0.2 nM	2 nM	0.83 nM	
Py-^meUmUfGmUfCmUfCmUfGmGfUmCfCmUfUmAfCmUfUmAeAe (antisense UUGUCUCUGGUCCUUACUUAA; 5'-methylenephosphonate, 2'-F/2'-OMe, MOE, chemistry not fully specified) [ISIS 467076]		0.05 nM	6 nM	6 nM	inhibition of PTEN (PTEN [4]): smaller inhibition of PTEN; % inhibition (PTEN [4]): 16%; % Kd (PTEN [5]): 34%; level of intact compound in tissue ([6]; 75 mg/kg, 48 h): present at a lower concentration; Tissue Level of intact compound [6, 10]: 22.5 µg/g
ds miR-16: double-stranded miR-16 mimic: UAGCAGCACGUAAAUAUUGGCG (SEQ 21) with AAAGCGUCGUGCAUUUAUAACC (SEQ 22) (chain 2 CCAAUAUUUACGUGCUGCGAAA; listed as RNA, chemistry not given here) [reference compound]					cell cycle phenotype (A549 cells): blocked cells in the G1 phase of the cell cycle
